According to US20260109707A1, “HETEROBIFUNCTIONAL COMPOUNDS AND METHODS OF TREATING DISEASE” (Halda Therapeutics OpCo. Inc., priority 2022, published 2026):
Where two headings read alike, the source gives them in different places.

Tests used:
[1] = tested on: T-Rex 293 cell line SC3 cells lacking increased expression of androgen receptor protein; assay: Cellular growth inhibition assay, T-Rex 293 SC3 cells without doxycycline (CellTiter-Glo, 72 hours); type: cell-based; conditions: T-Rex 293 cell line SC3 cells not exposed to doxycycline (lacking increased androgen receptor expression)
In short: (§1)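 Doxycycline (10 ng/mL) was either included or omitted to toggle wild-type androgen receptor expression in SC3 cells, a T-Rex 293 clone, grown in stripped-serum, phenol red-free medium. After 72 hours with compound, viable cells were quantified by CellTiter-Glo 2.0.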

VCaP cells = assay: Cellular growth inhibition assay for VCaP cells (CellTiter-Glo, 72 hours); type: cell-based, human
In short: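 Luminescent viability signal after 72 h of compound exposure gave GI50 values by four-parameter nonlinear regression. Compounds were added in 0.5% DMSO to cells plated 24 h earlier at 5000/well in DMEM containing 10% FBS.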

[2] = tested on: T-Rex 293 cell line SC3 cells having increased expression of androgen receptor protein due to exposure to doxycycline; assay: Cellular growth inhibition assay, T-Rex 293 SC3 cells with doxycycline (CellTiter-Glo, 72 hours); type: cell-based; conditions: T-Rex 293 SC3 cells with increased androgen receptor expression due to doxycycline (10 ng/mL)
In short: as §1

Row | GI50 (VCaP cells) [nM] | GI50 (VCaP cells; Homo sapiens, VCaP, 72 h) [nM] | SMILES | GI50 [1] [nM] | GI50 [2] [nM] | GI50 ([1]; 72 h) [nM] | GI50 ([2]; 72 h) [nM]
1 | < 500 | – | Cc1sc2c(c1C)C(c1ccc(OC3CCC4(CCN(c5ccc(C(=O)N[C@H]6CC[C@H](Oc7ccc(C#N)c(Cl)c7)CC6)nn5)C4)C3)cc1)=N[C@@H](C)c1nnc(C)n1-2 (stereo partly drawn) [I-734] | < 500 | < 500 | – | –
2 | < 500 | – | Cc1sc2c(c1C)C(c1ccc(N3CCC4(CCN(c5ccc(C(=O)N[C@H]6CC[C@H](Oc7ccc(C#N)c(Cl)c7)CC6)nn5)C4)CC3)c(F)c1)=N[C@@H](C)c1nnc(C)n1-2 [I-735] | < 500 | < 500 | – | –
3 | – | 500 to 1500 | Cc1sc2c(c1C)C(c1ccccc1N1CCC3(CCCN(c4ccc(C(=O)N[C@H]5CC[C@H](Oc6ccc(C#N)c(Cl)c6)CC5)nn4)C3)CC1)=N[C@@H](C)c1nnc(C)n1-2 [I-737] | – | – | < 500 | < 500
4 | < 500 | – | Cc1sc2c(c1C)C(c1ccc(C3CCC4(CCN(c5ccc(C(=O)N[C@H]6CC[C@H](Oc7ccc(C#N)c(Cl)c7)CC6)nn5)CC4)C3)nc1)=NC1(CC1)c1nnc(C)n1-2 (stereo partly drawn) [I-738] | > 3000 | < 500 | – | –
5 | < 500 | – | Cc1sc2c(c1C)C(c1ccc(C3CCC4(CCN(c5ccc(C(=O)N[C@H]6CC[C@H](Oc7ccc(C#N)c(Cl)c7)CC6)nn5)CC4)C3)nc1)=NC1(CC1)c1nnc(C)n1-2 (stereo partly drawn) [I-739] | 500 to 1500 | < 500 | – | –
6 | < 500 | – | Cc1sc2c(c1C)C(c1ccc(C#CC3CC4(C3)CN(c3ccc(C(=O)N[C@H]5CC[C@H](Oc6ccc(C#N)c(Cl)c6)CC5)nn3)C4)cc1)=NC(C(F)(F)F)c1nnc(C)n1-2 (stereo partly drawn) [I-741] | – | < 500 | > 3000 | –
7 | < 500 | – | Cc1sc2c(c1C)C(c1ccc(C3CCC4(CC3)CCN(c3ccc(C(=O)N[C@H]5CC[C@H](Oc6ccc(C#N)c(Cl)c6)CC5)nn3)CC4)nc1)=N[C@@H](C)c1nnc(C)n1-2 [I-744] | 500 to 1500 | < 500 | – | –
8 | – | < 500 | Cc1sc2c(c1C)C(c1ccc(N3CCC4(CCN(c5ccc(C(=O)N[C@H]6CC[C@H](Oc7ccc(C#N)c(Cl)c7)CC6)nn5)C4)C3)c(F)c1)=N[C@@H](C)c1nnc(C)n1-2 (stereo partly drawn) [I-745] | < 500 | < 500 | – | –
9 | – | < 500 | Cc1sc2c(c1C)C(c1ccc(N3CCC4(CCN(c5ccc(C(=O)N[C@H]6CC[C@H](Oc7ccc(C#N)c(Cl)c7)CC6)nn5)C4)C3)cc1F)=N[C@@H](C)c1nnc(C)n1-2 (stereo partly drawn) [I-746] | 500 to 1500 | < 500 | – | –
10 | < 500 | – | Cc1sc2c(c1C)C(c1cccc(OC3CCC4(CC3)CCN(c3ccc(C(=O)N[C@H]5CC[C@H](Oc6ccc(C#N)c(Cl)c6)CC5)nn3)C4)c1)=N[C@@H](C)c1nnc(C)n1-2 (stereo partly drawn) [I-747] | < 500 | – | – | < 500
11 | – | < 500 | Cc1sc2c(c1C)C(c1cccc(OC3CCC4(CCN(c5ccc(C(=O)N[C@H]6CC[C@H](Oc7ccc(C#N)c(Cl)c7)CC6)nn5)C4)C3)c1)=N[C@@H](C)c1nnc(C)n1-2 (stereo partly drawn) [I-748] | – | – | < 500 | < 500
12 | < 500 | – | Cc1sc2c(c1C)C(c1cccc(OC3CCC4(CCN(c5ccc(C(=O)N[C@H]6CC[C@H](Oc7ccc(C#N)c(Cl)c7)CC6)nn5)C4)C3)c1)=N[C@@H](C)c1nnc(C)n1-2 (stereo partly drawn) [I-749] | 500 to 1500 | < 500 | – | –
13 | < 500 | – | Cc1sc2c(c1C)C(c1cccc(OC3CCC4(CCN(c5ccc(C(=O)N[C@H]6CC[C@H](Oc7ccc(C#N)c(Cl)c7)CC6)nn5)C4)C3)c1)=N[C@@H](C)c1nnc(C)n1-2 (stereo partly drawn) [I-750] | < 500 | < 500 | – | –
14 | – | < 500 | Cc1sc2c(c1C)C(c1ccccc1N1CC3(CCN(c4ccc(C(=O)N[C@H]5CC[C@H](Oc6ccc(C#N)c(Cl)c6)CC5)nn4)CC3)C1)=N[C@@H](C)c1nnc(C)n1-2 [I-751] | – | – | < 500 | < 500
15 | – | < 500 | Cc1sc2c(c1C)C(c1ccccc1OC1CCC3(CC1)CCN(c1ccc(C(=O)N[C@H]4CC[C@H](Oc5ccc(C#N)c(Cl)c5)CC4)nn1)C3)=N[C@@H](C)c1nnc(C)n1-2 (stereo partly drawn) [I-752] | – | – | < 500 | < 500
16 | < 500 | – | Cc1sc2c(c1C)C(c1ccccc1OC1CCC3(CC1)CCN(c1ccc(C(=O)N[C@H]4CC[C@H](Oc5ccc(C#N)c(Cl)c5)CC4)nn1)C3)=N[C@@H](C)c1nnc(C)n1-2 (stereo partly drawn) [I-753] | < 500 | < 500 | – | –
17 | – | > 3000 | Cc1sc2c(c1C)C(c1ccccc1CC1CC3(CCCN(c4ccc(C(=O)N[C@H]5CC[C@H](Oc6ccc(C#N)c(Cl)c6)CC5)nn4)C3)C1)=N[C@@H](C)c1nnc(C)n1-2 (stereo partly drawn) [I-754] | – | – | > 3000 | > 3000

Row | GI50 (VCaP cells) [nM] | GI50 (VCaP cells; Homo sapiens, VCaP, 72 h) [nM] | SMILES | GI50 [1] [nM] | GI50 [2] [nM] | GI50 ([1]; 72 h) [nM] | GI50 ([2]; 72 h) [nM]
18 | 1500 to 3000 | – | Cc1sc2c(c1C)C(c1ccccc1CC1CC3(CCCN(c4ccc(C(=O)N[C@H]5CC[C@H](Oc6ccc(C#N)c(Cl)c6)CC5)nn4)C3)C1)=N[C@@H](C)c1nnc(C)n1-2 (stereo partly drawn) [I-755] | > 3000 | > 3000 | – | –
19 | – | < 500 | Cc1sc2c(c1C)C(c1ccc(C3CCC(CC4CCN(c5ccc(C(=O)N[C@H]6CC[C@H](Oc7ccc(C#N)c(Cl)c7)CC6)nn5)CC4)CC3)cc1)=NC1(CC1)c1nnc(C)n1-2 (stereo partly drawn) [I-756] | > 3000 | – | – | < 500
20 | < 500 | – | Cc1sc2c(c1C)C(c1ccc(C3CCC(CC4CCN(c5ccc(C(=O)N[C@H]6CC[C@H](Oc7ccc(C#N)c(Cl)c7)CC6)nn5)CC4)CC3)cc1)=NC1(CC1)c1nnc(C)n1-2 (stereo partly drawn) [I-757] | < 500 | < 500 | – | –
21 | > 3000 | – | Cc1sc2c(c1C)C(c1ccc(C3CCC4(CCN(c5ccc(C(=O)N[C@H]6CC[C@H](Oc7ccc(C#N)c(Cl)c7)CC6)nn5)CC4)C3)cc1)=NC(C(F)(F)F)c1nnc(C)n1-2 (stereo partly drawn) [I-758] | > 3000 | > 3000 | – | –
22 | – | < 500 | Cc1sc2c(c1C)C(c1ccc(C3CCC4(CCN(c5ccc(C(=O)N[C@H]6CC[C@H](Oc7ccc(C#N)c(Cl)c7)CC6)nn5)CC4)C3)cc1)=NC(C(F)(F)F)c1nnc(C)n1-2 (stereo partly drawn) [I-759] | – | > 3000 | > 3000 | –
23 | < 500 | – | Cc1sc2c(c1C)C(c1ccc(C3CCC4(CCN(c5ccc(C(=O)N[C@H]6CC[C@H](Oc7ccc(C#N)c(Cl)c7)CC6)nn5)CC4)C3)cc1)=NC(C(F)(F)F)c1nnc(C)n1-2 (stereo partly drawn) [I-760] | > 3000 | < 500 | – | –
24 | < 500 | – | Cc1sc2c(c1C)C(c1ccc(C3CCC4(CCN(c5ccc(C(=O)N[C@H]6CC[C@H](Oc7ccc(C#N)c(Cl)c7)CC6)nn5)CC4)C3)cc1)=NC(C(F)(F)F)c1nnc(C)n1-2 (stereo partly drawn) [I-761] | > 3000 | > 3000 | – | –
25 | – | < 500 | Cc1sc2c(c1C)C(c1ccc(C3CCC(CC4CCN(c5ccc(C(=O)N[C@H]6CC[C@H](Oc7ccc(C#N)c(Cl)c7)CC6)nn5)CC4)CC3)cc1)=N[C@@H](C)c1nnc(C)n1-2 (stereo partly drawn) [I-764] | – | – | > 3000 | < 500
26 | < 500 | – | Cc1sc2c(c1C)C(c1ccc(C3CCC(CC4CCN(c5ccc(C(=O)N[C@H]6CC[C@H](Oc7ccc(C#N)c(Cl)c7)CC6)nn5)CC4)CC3)cc1)=N[C@@H](C)c1nnc(C)n1-2 (stereo partly drawn) [I-765] | > 3000 | < 500 | – | –
27 | – | < 500 | Cc1sc2c(c1C)C(c1ccc(N3CC45CCCCC4(C3)CN(c3ccc(C(=O)N[C@H]4CC[C@H](Oc6ccc(C#N)c(Cl)c6)CC4)nn3)C5)cc1)=N[C@@H](C)c1nnc(C)n1-2 (stereo partly drawn) [I-766] | – | – | > 3000 | < 500
28 | < 500 | – | Cc1sc2c(c1C)C(c1ccc(N3CCC4(CC3)CCN(c3ccc(C(=O)N[C@H]5CC[C@H](Oc6ccc(C#N)c(Cl)c6)CC5)nn3)C4)cc1F)=N[C@@H](C)c1nnc(C)n1-2 [I-767] | < 500 | < 500 | – | –
29 | – | < 500 | Cc1sc2c(c1C)C(c1ccc(CC3CC4(CCCN(c5ccc(C(=O)N[C@H]6CC[C@H](Oc7ccc(C#N)c(Cl)c7)CC6)nn5)C4)C3)cn1)=NC(Cc1ncco1)c1nnc(C)n1-2 (stereo partly drawn) [I-768] | > 3000 | < 500 | – | –
30 | < 500 | – | Cc1sc2c(c1C)C(c1ccc(CC3CC4(CCCN(c5ccc(C(=O)N[C@H]6CC[C@H](Oc7ccc(C#N)c(Cl)c7)CC6)nn5)C4)C3)cn1)=NC(Cc1ncco1)c1nnc(C)n1-2 (stereo partly drawn) [I-769] | > 3000 | > 3000 | – | –
31 | < 500 | – | Cc1sc2c(c1C)C(c1ccc(CC3CC4(CCCN(c5ccc(C(=O)N[C@H]6CC[C@H](Oc7ccc(C#N)c(Cl)c7)CC6)nn5)C4)C3)cn1)=NC(Cc1ncco1)c1nnc(C)n1-2 (stereo partly drawn) [I-770] | < 500 | < 500 | – | –
32 | < 500 | – | Cc1sc2c(c1C)C(c1ccc(CC3CC4(CCCN(c5ccc(C(=O)N[C@H]6CC[C@H](Oc7ccc(C#N)c(Cl)c7)CC6)nn5)C4)C3)cn1)=NC(Cc1ncco1)c1nnc(C)n1-2 (stereo partly drawn) [I-771] | < 500 | < 500 | – | –
33 | – | < 500 | Cc1sc2c(c1C)C(c1ccc(N3CC(C4CCC(Cc5ccc(C(=O)N[C@H]6CC[C@H](Oc7ccc(C#N)c(Cl)c7)CC6)nn5)CC4)C3)cc1)=N[C@@H](Cc1ncco1)c1nnc(C)n1-2 (stereo partly drawn) [I-772] | – | – | 500 to 1500 | < 500
34 | – | < 500 | Cc1sc2c(c1C)C(c1ccc(NCC3(F)CCN(c4ncc(C(=O)N[C@H]5CC[C@H](Oc6ccc(C#N)c(Cl)c6)CC5)cn4)CC3)cc1)=NC(Cc1ncco1)c1nnc(C)n1-2 (stereo partly drawn) [I-784] | – | – | < 500 | < 500

Row | SMILES | GI50 (VCaP cells) [nM] | GI50 (VCaP cells; Homo sapiens, VCaP, 72 h) [nM] | GI50 [1] [nM] | GI50 [2] [nM] | GI50 ([1]; 72 h) [nM] | GI50 ([2]; 72 h) [nM]
35 | Cc1sc2c(c1C)C(c1ccc(N3C4CCC3CN(c3ncc(C(=O)N[C@H]5CC[C@H](Oc6ccc(C#N)c(Cl)c6)CC5)cn3)C4)cc1)=NC(Cc1ncco1)c1nnc(C)n1-2 (stereo partly drawn) [I-785] | – | > 3000 | 500 to 1500 | < 500 | – | –
